Measurements reported in PMC5520691, “An enhanced bioluminescence-based Annexin V probe for apoptosis detection in vitro and in vivo” (Cell Death & Disease, 2017).

Molecular target: T1, ArFP (Annexin V-Renilla luciferase RLuc8 fusion protein) (Homo sapiens, UniProt P08758)
T1 construct: gene ANXA5; Annexin V fused N-terminal to the RLuc8 reporter (Renilla reniformis luciferase mutant) via a short linker (GGSGGS by the primers); N-terminal 6xHis tag, pET-30 Xa/LIC, E. coli T7 Express, Ni-NTA; primers cover the Annexin V start (ATGGCACAGGTTCTC, MAQVL) and end (CGEDD)
T1 sequence (P08758 1-320): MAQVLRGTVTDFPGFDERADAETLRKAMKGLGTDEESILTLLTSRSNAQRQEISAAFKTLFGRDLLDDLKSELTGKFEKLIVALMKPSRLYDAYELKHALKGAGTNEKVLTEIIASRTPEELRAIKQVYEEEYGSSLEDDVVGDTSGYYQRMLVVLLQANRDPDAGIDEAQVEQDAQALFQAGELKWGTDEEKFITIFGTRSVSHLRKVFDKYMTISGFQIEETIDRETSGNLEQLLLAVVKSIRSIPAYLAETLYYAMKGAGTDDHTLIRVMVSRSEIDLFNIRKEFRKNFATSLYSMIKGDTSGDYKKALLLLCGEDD
Assay: isothermal titration calorimetry, vesicles titrated into protein, independent binding model
Settings: read-out: Binding affinity for PS (KD)

Kd: 20.7 µM
SMILES: CCCCCCCC/C=C\CCCCCCCC(=O)O[C@H](COC(=O)CCCCCCCCCCCCCCC)COP(=O)(O)OC[C@H](N)C(=O)O [POPS, 1-palmitoyl-2-oleoyl-sn-glycero-3-[phospho-L-serine]]
